# Measured values from US7932278B2, “2-aminoethoxyacetic acid derivatives and their use” (Bayer Schering Pharma Aktiengesellschaft, priority 2005, dated 2011).
# Counter-ions that a name gives are not always drawn.
# Biological target: human factor Xa (FXa) (Homo sapiens, UniProt P00742)
# Experiment: Determination of the factor Xa inhibition (chromogenic substrate)
# Format: biochemical
# Conditions: human FXa 0.5 nmol/l, 150 μmol/l Pefachrome FXa, 25° C., extinction at 405 nm
# Experimental: a. 1) Determination of the Factor Xa Inhibition:
# The enzymatic action of human factor Xa (FXa) is measured using the conversion of a chromogenic substrate specific for FXa. Factor Xa cleaves p-nitroaniline from the chromogenic substrate. The determinations are carried out in microtiter plates as follows:
# The test substances, in various concentrations, are dissolved in DMSO and incubated for 10 minutes at 25° C. with human FXa (0.5 nmol/l dissolved in 50 mmol/l of tris buffer [C,C,C-tris(hydroxymethyl)aminomethane], 150 mmol/l of NaCl, 0.1% BSA [bovine serum albumin], pH=8.3). Pure DMSO is used as control. The chromogenic substrate (150 μmol/l Pefachrome® FXa from Pentapharm) is then added. After an incubation time of 20 minutes at 25° C., the extinction at 405 nm is determined.
# human factor Xa (FXa), sequence (P00742 235-488 limits assumed): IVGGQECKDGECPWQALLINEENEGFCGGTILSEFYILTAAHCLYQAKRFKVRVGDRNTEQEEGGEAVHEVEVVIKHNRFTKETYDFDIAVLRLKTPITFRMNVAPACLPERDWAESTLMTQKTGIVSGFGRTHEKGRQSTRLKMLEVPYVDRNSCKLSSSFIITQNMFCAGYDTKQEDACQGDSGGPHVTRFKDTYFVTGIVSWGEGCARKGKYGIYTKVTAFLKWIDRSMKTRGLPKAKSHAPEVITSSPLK
# human factor Xa (FXa), sequence (P00742 41-179 partner limits assumed): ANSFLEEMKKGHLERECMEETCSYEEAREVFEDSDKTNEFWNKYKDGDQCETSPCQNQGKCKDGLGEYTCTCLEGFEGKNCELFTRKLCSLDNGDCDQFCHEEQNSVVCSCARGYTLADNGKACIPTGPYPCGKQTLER
row,IC50,Structure (SMILES)
1,32 nM,"O=C(O)COCCNc1ccc(N2C[C@H](CNC(=O)c3ccc(Cl)s3)OC2=O)cc1 [Example 1, 2-({4-[(5S)-5-({[(5-Chloro-2-thienyl)carbonyl]amino}methyl)-2-oxo-1,3-oxazolidin-3-yl]phenyl}-amino)ethoxy]acetic acid hydrochloride]"
2,66 nM,"O=C(O)COCCN(C(=O)c1ccc(Cl)s1)c1ccc(N2C[C@H](CNC(=O)c3ccc(Cl)s3)OC2=O)cc1 [Example 3, [2-([(5-Chloro-2-thienyl)carbonyl]{4-[(5S)-5-({[(5-chloro-2-thienyl)carbonyl]amino}methyl)-2-oxo-1,3-oxazolidin-3-yl]phenyl}amino)ethoxy]acetic acid]"
3,59 nM,"CC(C)CNC(=O)N(CCOCC(=O)O)c1ccc(N2C[C@H](CNC(=O)c3ccc(Cl)s3)OC2=O)cc1 [Example 4, {2-[{4-[(5S)-5-({[(5-Chloro-2-thienyl)carbonyl]amino}methyl)-2-oxo-1,3-oxazolidin-3-yl]phenyl}-(isobutylcarbamoyl)amino]ethoxy}acetic acid]"
